In the supplement of paper PMC11451515:

Tested on: P12-Ichikawa
Assay: cell viability relative to DMSO control; higher = less cytotoxic
Conditions: 48 h
In short: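 Leukemia cells (NOMO1 or SEM, 500 cells/well; P12-Ichikawa, 1000 cells/well) were seeded in 5 μl in 1536-well plates after at least four passages of adaptation to each medium. They received library compounds in DMSO by pin dosing, 11 threefold points from 47 μM to 0.79 nM. Luminescence with CellTiter-Glo One was read after 48 h at 37°C. Viability is stated per plate relative to DMSO wells, with cell-free wells as background.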

[1] = HPLM + 10% dialyzed FBS, 0.000781 µM
[2] = HPLM + 10% dialyzed FBS, 0.00234 µM
[3] = HPLM + 10% dialyzed FBS, 0.00702 µM
[4] = HPLM + 10% dialyzed FBS, 0.0211 µM
[5] = HPLM + 10% dialyzed FBS, 0.0632 µM
[6] = HPLM + 10% dialyzed FBS, 0.19 µM
[7] = HPLM + 10% dialyzed FBS, 0.569 µM
[8] = HPLM + 10% dialyzed FBS, 1.71 µM
[9] = HPLM + 10% dialyzed FBS, 5.12 µM
[10] = HPLM + 10% dialyzed FBS, 15.4 µM
[11] = HPLM + 10% dialyzed FBS, 46.1 µM
[12] = RPMI 5 mM glucose + 10% FBS, 0.000781 µM
[13] = RPMI 5 mM glucose + 10% FBS, 0.00234 µM
[14] = RPMI 5 mM glucose + 10% FBS, 0.00702 µM
[15] = RPMI 5 mM glucose + 10% FBS, 0.0211 µM
[16] = RPMI 5 mM glucose + 10% FBS, 0.0632 µM
[17] = RPMI 5 mM glucose + 10% FBS, 0.19 µM
[18] = RPMI 5 mM glucose + 10% FBS, 0.569 µM
[19] = RPMI 5 mM glucose + 10% FBS, 1.71 µM
[20] = RPMI 5 mM glucose + 10% FBS, 5.12 µM
[21] = RPMI 5 mM glucose + 10% FBS, 15.4 µM
[22] = RPMI 5 mM glucose + 10% FBS, 46.1 µM
[23] = RPMI 5 mM glucose + 10% dialyzed FBS, 0.000781 µM
[24] = RPMI 5 mM glucose + 10% dialyzed FBS, 0.00234 µM
[25] = RPMI 5 mM glucose + 10% dialyzed FBS, 0.00702 µM
[26] = RPMI 5 mM glucose + 10% dialyzed FBS, 0.0211 µM
[27] = RPMI 5 mM glucose + 10% dialyzed FBS, 0.0632 µM
[28] = RPMI 5 mM glucose + 10% dialyzed FBS, 0.19 µM
[29] = RPMI 5 mM glucose + 10% dialyzed FBS, 0.569 µM
[30] = RPMI 5 mM glucose + 10% dialyzed FBS, 1.71 µM
[31] = RPMI 5 mM glucose + 10% dialyzed FBS, 5.12 µM
[32] = RPMI 5 mM glucose + 10% dialyzed FBS, 15.4 µM
[33] = RPMI 5 mM glucose + 10% dialyzed FBS, 46.1 µM

| Compound | cell viability [1] [%] | cell viability [2] [%] | cell viability [3] [%] | cell viability [4] [%] | cell viability [5] [%] | cell viability [6] [%] | cell viability [7] [%] | cell viability [8] [%] | cell viability [9] [%] | cell viability [10] [%] | cell viability [11] [%] | cell viability [12] [%] | cell viability [13] [%] | cell viability [14] [%] | cell viability [15] [%] | cell viability [16] [%] | cell viability [17] [%] | cell viability [18] [%] | cell viability [19] [%] | cell viability [20] [%] | cell viability [21] [%] | cell viability [22] [%] | cell viability [23] [%] | cell viability [24] [%] | cell viability [25] [%] | cell viability [26] [%] | cell viability [27] [%] | cell viability [28] [%] | cell viability [29] [%] | cell viability [30] [%] | cell viability [31] [%] | cell viability [32] [%] | cell viability [33] [%] |
| --- | --- | --- | --- | --- | --- | --- | --- | --- | --- | --- | --- | --- | --- | --- | --- | --- | --- | --- | --- | --- | --- | --- | --- | --- | --- | --- | --- | --- | --- | --- | --- | --- | --- |
| Cc1coc2c1C(=O)C(=O)c1c-2ccc2c1CCCC2(C)C | 103 | 106 | 109 | 116 | 106 | 104 | 93 | 93.2 | 94 | 94.8 | 99.8 | 96.6 | 98.3 | 97.9 | 95.3 | 91 | 92.1 | 95.4 | 88.6 | 91.5 | 89.4 | 87.9 | 95.5 | 97.8 | 103 | 93.7 | 96.5 | 87.7 | 87.3 | 87.8 | 83.4 | 84.7 | 92.2 |
| CCOC(=O)C(C)OC1=CC=CC2=C1\C=C/N(CC(=O)NC3=CC=C4OCCOC4=C3)C2=O (stereo not given) | 89.3 | 97.6 | 97.9 | 53.9 | 101 | 106 | 95.5 | 97.5 | 90.5 | 101 | 108 | 89.6 | 97.6 | 97.9 | 91.7 | 98.6 | 103 | 103 | 91.2 | 87.2 | 111 | 108 | 88.6 | 88.2 | 91.5 | 88.5 | 85.7 | 98.2 | 92.2 | 89.8 | 90.4 | 92.5 | 101 |
| COc1ccc2c(c1)CN(C)CC2c1ccc(Cl)c(Cl)c1 (stereo not given) | 128 | 121 | 125 | 125 | 134 | 133 | 125 | 123 | 133 | 131 | 116 |  |  |  |  |  |  |  |  |  |  |  |  |  |  |  |  |  |  |  |  |  |  |
| N[C@@H]1CONC1=O | 97.7 | 108 | 101 | 105 | 109 | 106 | 109 | 112 | 114 | 100 | 110 | 95.6 | 95.6 | 106 | 102 | 111 | 102 | 104 | 95.5 | 102 | 97.2 | 103 | 92.6 | 95.9 | 101 | 101 | 105 | 106 | 98.7 | 102 | 96.5 | 101 | 103 |
| C=C[C@H]1CN2CCC1C[C@@H]2C(O)c1ccnc2ccc(OC)cc12 (stereo not given in full) | 112 | 131 | 117 | 119 | 127 | 122 | 123 | 133 | 123 | 122 | 103 |  |  |  |  |  |  |  |  |  |  |  | 125 | 121 | 120 | 128 | 145 | 128 | 136 | 133 | 123 | 135 | 124 |
| CCCCCNC(=O)N1CCC(CN(Cc2ccc(Cl)cc2)Cc2ccc([N+](=O)[O-])s2)C1 (stereo not given) | 113 | 127 | 119 | 121 | 111 | 114 | 111 | 110 | 103 | 96.9 | 85.6 | 108 | 116 | 113 | 107 | 114 | 100 | 107 | 97 | 103 | 90.4 | 74.2 | 123 | 104 | 104 | 117 | 111 | 113 | 109 | 95.2 | 101 | 94.3 | 78.9 |
| CN1CCCN(CC1)C2=CC=C3C(=O)\C(=C/4SC5=C(C=CC=C5)N4C3=N2)C(=O)NCC6=CN=C(C)C=N6 | 114 | 108 | 119 | 108 | 110 | 113 | 108 | 103 | 92.3 | 92.4 | 84.6 | 113 | 124 | 122 | 109 | 117 | 108 | 95.9 | 101 | 83.3 | 81.8 | 54.1 | 103 | 114 | 117 | 108 | 107 | 104 | 94.5 | 92.1 | 85.8 | 82.2 | 59.6 |
| COc1ccc(C(=O)CC2(O)C(=O)Nc3c(Cl)ccc(Cl)c32)cc1 (stereo not given) | 102 | 114 | 114 | 114 | 117 | 124 | 120 | 106 | 55 | 19.6 | 14.5 | 107 | 104 | 117 | 109 | 116 | 125 | 118 | 106 | 55.8 | 14.1 | 12.9 | 98.9 | 116 | 126 | 115 | 120 | 128 | 122 | 105 | 81.9 | 25.4 | 27.5 |
| O=C(c1ccccc1)c1ccc2n1CCC2C(=O)O (stereo not given) | 113 | 111 | 114 | 111 | 112 | 106 | 109 | 91.7 | 75.8 | 64.6 | 71.5 | 127 | 117 | 124 | 119 | 120 | 113 | 117 | 96.3 | 84.5 | 57.3 | 62.8 | 104 | 108 | 106 | 107 | 99.1 | 108 | 98.6 | 93.6 | 72.6 | 52.8 | 61.8 |
| Cc1csc(-c2nnc(Nc3ccc(Oc4ncccc4-c4ccnc(N)n4)cc3)c3ccccc23)c1 | 107 | 111 | 104 | 15.1 | 16.6 | 14.6 | 19.1 | 23.2 | 20.1 | 18.7 | 22 | 104 | 116 | 106 | 22.3 | 20.1 | 16.7 | 20.3 | 26.5 | 26.4 | 24.3 | 24.9 | 117 | 109 | 108 | 27.8 | 24.8 | 27.1 | 34.4 | 39.9 | 43.5 | 39.6 | 38.1 |
| CC1=CC(=CC(=C1C\C2=N\CCN2)C)C(C)(C)C | 102 | 105 | 105 | 106 | 105 | 124 | 107 | 116 | 106 | 104 | 102 | 99.5 | 105 | 105 | 114 | 118 | 113 | 111 | 114 | 99.3 | 86.4 | 90.2 | 91 | 96.4 | 98.1 | 100 | 105 | 92.9 | 103 | 102 | 97.9 | 91.4 | 84.1 |
| CC(=O)Oc1ccccc1C(=O)Nc1ncc([N+](=O)[O-])s1 | 102 | 103 | 106 | 107 | 104 | 104 | 110 | 109 | 95.9 | 97.3 | 36.5 | 92.8 | 102 | 95.5 | 98.3 | 96 | 104 | 98.5 | 98.4 | 79.9 | 83.5 | 75.6 | 95.7 | 97.5 | 100 | 95.6 | 94.2 | 95.4 | 96.3 | 93.5 | 82 | 85.2 | 79.9 |
| COC(=O)C\1=C(C)\N\C(=C(/C1C2=CC=CC3=NON=C23)C(=O)OC(C)C)C (stereo not given) | 100 | 102 | 99.4 | 95 | 102 | 93.8 | 96.9 | 96.1 | 88 | 90.2 | 87.7 | 96.1 | 101 | 100 | 94.8 | 104 | 98.8 | 93.1 | 94.2 | 87 | 86.9 | 87.4 | 97.6 | 94.6 | 88.5 | 95.2 | 101 | 90.4 | 88.7 | 87.2 | 93.4 | 86.6 | 86.1 |
| CNC(=O)c1ccc(Nc2cc(Nc3ccccc3[S+](=O)([O-])C(C)C)c3cc[nH]c3n2)nc1 | 98.8 | 104 | 107 | 100 | 110 | 111 | 113 | 89.8 | 12.5 | 10.6 | 22.3 | 108 | 108 | 105 | 115 | 105 | 113 | 98.1 | 66.7 | 14.7 | 12.6 | 19.2 | 109 | 105 | 111 | 105 | 116 | 118 | 107 | 83.5 | 26.7 | 28.2 | 29.6 |
| CC(C(=O)O)c1ccc2c(c1)CC(=O)c1ccccc1S2 (stereo not given) | 104 | 108 | 107 | 110 | 118 | 106 | 115 | 101 | 111 | 37.5 | 25.1 | 99.3 | 117 | 101 | 104 | 116 | 115 | 118 | 109 | 106 | 24 | 18.8 | 102 | 101 | 101 | 99.2 | 99.5 | 107 | 104 | 109 | 104 | 31.7 | 21.2 |
| O=C(O)c1cc(/N=N/c2ccc([S+](=O)([O-])Nc3ccccn3)cc2)ccc1O | 108 | 107 | 112 | 102 | 113 | 116 | 116 | 107 | 106 | 98.6 | 92.3 | 108 | 111 | 105 | 110 | 119 | 115 | 114 | 122 | 113 | 111 | 108 | 103 | 114 | 110 | 102 | 120 | 114 | 119 | 120 | 110 | 102 | 102 |
